From patent US20030215462A1, “Use of UGT inhibitors to increase bioavailability” (priority 2001, published 2003)

Legend:
[1] = molecular target: T1, UGT1A1 (Homo sapiens, UniProt P22309); experiment: Inhibition of raloxifene glucuronidation by recombinant UGT1A1 Supersomes; details: UGT1A1
T1 sequence (P22309 26-533): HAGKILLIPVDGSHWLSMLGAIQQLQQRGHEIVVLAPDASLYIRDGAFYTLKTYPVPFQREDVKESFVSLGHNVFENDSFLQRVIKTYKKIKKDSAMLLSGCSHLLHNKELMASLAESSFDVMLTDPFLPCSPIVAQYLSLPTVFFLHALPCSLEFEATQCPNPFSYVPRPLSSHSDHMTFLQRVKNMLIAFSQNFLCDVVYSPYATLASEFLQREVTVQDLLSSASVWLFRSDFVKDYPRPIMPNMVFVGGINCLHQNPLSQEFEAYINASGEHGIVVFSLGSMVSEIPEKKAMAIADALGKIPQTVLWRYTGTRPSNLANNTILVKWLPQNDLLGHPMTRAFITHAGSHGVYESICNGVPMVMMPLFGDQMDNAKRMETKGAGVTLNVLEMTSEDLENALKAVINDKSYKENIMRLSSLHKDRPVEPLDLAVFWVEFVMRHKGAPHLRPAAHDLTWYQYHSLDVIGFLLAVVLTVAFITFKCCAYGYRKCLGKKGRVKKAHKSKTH
Protocol: (§1) Compounds were eluted using a binary solvent gradient system. Solvent A was water brought to pH 8 with NH4OH. Solvent B was methanol. Solvent flow rate was 1 ml/min and the column temperature was maintained at 50° C. Detection was at 280 nm. […] The system was then returned to the initial conditions and equilibrated for 3 min.

[2] = tested on: T2, UGT enzymes of human liver microsomes; experiment: Inhibition of 7-HFC glucuronidation in human liver microsomes; format: biochemical; details: inhibitor 500 μM; 7-HFC 50 μM, human liver microsomes 100 μg/ml, 15 min
T2 construct: percentage of control metabolism, 7-HFC glucuronidation; percentage of control metabolism, 7-HFC glucuronidation

[3] = molecular target: T1, UGT1A1; experiment: in vitro
Protocol: as §1

[4] = molecular target: T3, UGT1A10 (Homo sapiens, UniProt Q9HAW8); experiment: in vitro; details: pH 7.5, % of control metabolism
T3 sequence (Q9HAW8 26-530): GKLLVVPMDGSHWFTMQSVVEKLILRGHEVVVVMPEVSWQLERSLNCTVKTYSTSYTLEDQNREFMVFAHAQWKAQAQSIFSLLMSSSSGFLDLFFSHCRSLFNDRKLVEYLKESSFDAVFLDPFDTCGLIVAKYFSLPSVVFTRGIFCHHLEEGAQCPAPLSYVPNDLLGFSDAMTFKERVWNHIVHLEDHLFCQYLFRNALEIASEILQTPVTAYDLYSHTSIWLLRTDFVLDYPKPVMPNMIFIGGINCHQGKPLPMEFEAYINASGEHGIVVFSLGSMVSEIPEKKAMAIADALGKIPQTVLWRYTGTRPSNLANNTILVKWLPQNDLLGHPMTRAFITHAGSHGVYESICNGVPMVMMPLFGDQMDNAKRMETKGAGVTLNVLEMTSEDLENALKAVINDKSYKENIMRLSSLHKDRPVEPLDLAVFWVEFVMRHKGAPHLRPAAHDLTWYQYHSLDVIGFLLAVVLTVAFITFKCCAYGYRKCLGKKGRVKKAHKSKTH
Protocol: as §1

[5] = molecular target: T4, UGT1A3 (Homo sapiens, UniProt P35503); experiment: in vitro
T4 sequence (P35503 29-534): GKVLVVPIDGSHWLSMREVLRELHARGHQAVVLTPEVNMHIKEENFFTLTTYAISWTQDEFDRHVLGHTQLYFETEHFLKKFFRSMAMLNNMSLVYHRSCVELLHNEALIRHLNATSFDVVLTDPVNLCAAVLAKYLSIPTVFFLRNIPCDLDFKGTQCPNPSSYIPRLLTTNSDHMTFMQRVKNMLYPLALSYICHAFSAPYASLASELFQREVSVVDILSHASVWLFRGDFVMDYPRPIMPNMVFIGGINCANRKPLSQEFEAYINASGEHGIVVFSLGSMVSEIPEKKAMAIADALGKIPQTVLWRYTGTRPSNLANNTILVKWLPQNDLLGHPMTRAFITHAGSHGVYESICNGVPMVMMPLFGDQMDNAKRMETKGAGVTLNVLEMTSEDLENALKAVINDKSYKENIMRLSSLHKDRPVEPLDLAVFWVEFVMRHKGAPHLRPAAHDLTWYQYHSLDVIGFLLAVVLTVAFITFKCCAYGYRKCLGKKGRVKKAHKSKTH
Protocol: as §1

[6] = tested on: UGT enzymes of human liver microsomes; experiment: Inhibition of raloxifene glucuronidation (G1, G2) in human liver microsomes; format: biochemical; details: raloxifene 50 μM; for % of control metabolism (SD, n = 3), raloxifene glucuronide G1 / % of control metabolism (SD, n = 3), raloxifene glucuronide G2: human liver microsomes 250 μg/ml, 15 min
Text: Compounds were eluted using a binary solvent gradient system. […] Solvent B was methanol. […] Detection was at 280 nm.

[7] = molecular target: T4, UGT1A3; experiment: Inhibition of raloxifene glucuronidation by recombinant UGT1A3 Supersomes; details: UGT1A3
Protocol: as §1

[8] = molecular target: T5, UGT1A9 (Homo sapiens, UniProt O60656); experiment: Inhibition of raloxifene glucuronidation by recombinant UGT1A9 Supersomes; details: for activity at 15 min, 50 µM: human, Supersomes with recombinant human UGT1A9, pH 7.5, probe raloxifene 50 μM
T5 sequence (O60656 26-530): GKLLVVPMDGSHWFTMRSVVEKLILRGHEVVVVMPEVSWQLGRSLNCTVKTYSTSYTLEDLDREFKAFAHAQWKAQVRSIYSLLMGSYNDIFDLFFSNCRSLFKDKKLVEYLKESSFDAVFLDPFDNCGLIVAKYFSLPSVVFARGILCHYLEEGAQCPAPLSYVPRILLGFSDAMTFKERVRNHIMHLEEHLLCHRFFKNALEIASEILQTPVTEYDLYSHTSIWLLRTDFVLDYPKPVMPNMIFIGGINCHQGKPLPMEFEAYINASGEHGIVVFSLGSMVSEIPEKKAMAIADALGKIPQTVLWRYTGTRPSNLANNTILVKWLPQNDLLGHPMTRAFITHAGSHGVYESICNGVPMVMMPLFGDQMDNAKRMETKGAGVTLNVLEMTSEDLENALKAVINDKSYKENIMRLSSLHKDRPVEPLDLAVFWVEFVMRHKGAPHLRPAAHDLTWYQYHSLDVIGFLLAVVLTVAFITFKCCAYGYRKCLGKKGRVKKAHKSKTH
Protocol: as §1

[9] = molecular target: T3, UGT1A10; experiment: Inhibition of raloxifene glucuronidation by recombinant UGT1A10 Bacculosomes; details: UGT1A10
Protocol: as §1

[10] = molecular target: T5, UGT1A9; experiment: in vitro; details: pH 7.5, % of control metabolism
Protocol: as §1

[11] = pH 7.5, % of control metabolism, raloxifene G1
[12] = pH 7.5, % of control metabolism, raloxifene G2
[13] = pH 7.5, Inhibition of raloxifene glucuronidation, G1, UGT1A1
[14] = pH 7.5, Inhibition of raloxifene glucuronidation, G2, UGT1A1
[15] = pH 7.5, Inhibition of raloxifene glucuronidation, G1, UGT1A3
[16] = pH 7.5, Inhibition of raloxifene glucuronidation, G2, UGT1A3

## COc1c(C)c2c(c(O)c1C/C=C(\C)CCC(=O)O)C(=O)OC2 [Mycophenolic acid, reference compound]
[1]
  inhibition of raloxifene glucuronidation, in words: poor inhibitors
[2]
  % of control metabolism (SD, n = 3), 7-HFC glucuronidation: 83 (2) %
[3]; [11]
  activity at 15 min, 50 µM: 90%
[3]; [12]
  activity at 15 min, 50 µM: 89%
[3]; [13]
  activity at 15 min, 50 µM: 90%
[3]; [14]
  activity at 15 min, 50 µM: 89%
[4]; raloxifene G1
  activity at 15 min, 50 µM: 110%
[4]; raloxifene G2
  activity at 15 min, 50 µM: 98%
[5]; [11]
  activity at 15 min, 50 µM: 95%
[5]; [12]
  activity at 15 min, 50 µM: 87%
[5]; [15]
  activity at 15 min, 50 µM: 95%
[5]; [16]
  activity at 15 min, 50 µM: 87%
[6]; inhibitor 100 μM
  % of control metabolism (SD, n = 3), raloxifene glucuronide G1: 89 (3) %
  % of control metabolism (SD, n = 3), raloxifene glucuronide G2: 89 (2) %
  % of control metabolism, raloxifene G1: 89 (3) %
  % of control metabolism, raloxifene G2: 89 (2) %
[6]; inhibitor 500 μM
  % of control metabolism (SD, n = 3), raloxifene glucuronide G1: 43 (5) %
  % of control metabolism (SD, n = 3), raloxifene glucuronide G2: 47 (1) %
[7]
  inhibition of raloxifene glucuronidation, in words: poor inhibitors
[8]; UGT1A9
  inhibition of raloxifene glucuronidation, in words: poor inhibitors
[8]; formation of glucuronide G1, % of control metabolism, raloxifene G1, UGT1A9, inhibitor 50 μM
  activity at 15 min, 50 µM: 81%
[8]; formation of glucuronide G2, % of control metabolism, raloxifene G2, UGT1A9, inhibitor 50 μM
  activity at 15 min, 50 µM: 83%
[8]; second line (G2, metabolite not given), inhibitor 50 μM, raloxifene 50 μM, 250 μg/ml Supersomes, 1 mM UDPGA, 15 min
  Inhibition of raloxifene glucuronidation, UGT1A9, second line per inhibitor (G2): 83 (3)
[9]
  inhibition of raloxifene glucuronidation, in words: poor inhibitors

## COc1cc(C2Oc3cc([C@H]4Oc5cc(O)cc(O)c5C(=O)[C@@H]4O)ccc3OC2CO)ccc1O (stereo partly drawn) [Silibinin]
[3]; [11]
  activity at 15 min, 10 µM: 69%
  activity at 15 min, 25 µM: 46%
  activity at 15 min, 50 µM: 18%
[3]; [12]
  activity at 15 min, 10 µM: 63%
  activity at 15 min, 25 µM: 33%
  activity at 15 min, 50 µM: 7%
[3]; [13]
  activity at 15 min, 25 µM: 46%
  activity at 15 min, 50 µM: 18%
[3]; [14]
  activity at 15 min, 25 µM: 33%
  activity at 15 min, 50 µM: 7%
[4]; raloxifene G1
  activity at 15 min, 50 µM: 56%
[4]; raloxifene G2
  activity at 15 min, 50 µM: 64%
[5]; [11]
  activity at 15 min, 10 µM: 81%
  activity at 15 min, 25 µM: 59%
  activity at 15 min, 50 µM: 37%
[5]; [12]
  activity at 15 min, 10 µM: 56%
  activity at 15 min, 25 µM: 32%
  activity at 15 min, 50 µM: 10%
[5]; [15]
  activity at 15 min, 10 µM: 81%
  activity at 15 min, 25 µM: 58%
  activity at 15 min, 50 µM: 37%
[5]; [16]
  activity at 15 min, 10 µM: 56%
  activity at 15 min, 25 µM: 32%
  activity at 15 min, 50 µM: 10%
[10]; raloxifene G1
  activity at 15 min, 10 µM: 93%
  activity at 15 min, 25 µM: 74%
  activity at 15 min, 50 µM: 59%
[10]; raloxifene G2
  activity at 15 min, 10 µM: 72%
  activity at 15 min, 25 µM: 47%
  activity at 15 min, 50 µM: 22%
